The target in experiment [1] is T1, thymidylate synthase (TS) from L1210 mouse leukaemia cells (Mus musculus, UniProt P07607).
T1 construct: obtained in partially purified form from L1210 mouse leukaemia cells; endogenous in cells; host or cells: L1210 mouse leukaemia cells (enzyme partially purified)
Description: Inhibition of isolated L1210 thymidylate synthase. The class given is biochemical.

The target in experiment [2] is T2, reduced-folate carrier (RFC) (Mus musculus, UniProt P41438).
T2 construct: endogenous in cells; host or cells: L1210
T2 sequence (P41438 1-512): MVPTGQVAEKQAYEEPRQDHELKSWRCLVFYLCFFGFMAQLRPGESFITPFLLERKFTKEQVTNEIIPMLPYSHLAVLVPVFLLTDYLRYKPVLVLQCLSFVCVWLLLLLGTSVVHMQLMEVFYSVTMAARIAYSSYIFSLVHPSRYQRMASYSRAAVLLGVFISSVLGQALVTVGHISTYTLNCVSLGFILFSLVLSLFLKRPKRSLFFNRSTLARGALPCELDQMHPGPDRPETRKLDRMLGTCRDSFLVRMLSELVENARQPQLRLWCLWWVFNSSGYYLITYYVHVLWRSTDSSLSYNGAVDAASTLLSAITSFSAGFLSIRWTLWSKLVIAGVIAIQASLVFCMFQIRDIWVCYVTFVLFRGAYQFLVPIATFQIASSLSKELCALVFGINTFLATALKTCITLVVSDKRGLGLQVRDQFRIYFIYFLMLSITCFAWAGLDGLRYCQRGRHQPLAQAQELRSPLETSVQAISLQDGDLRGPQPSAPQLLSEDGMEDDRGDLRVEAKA
Description: Inhibition of 3H MTX uptake in L1210 cells. The class given is cell-based. The note with it: Inhibition of 3H MTX uptake Ki, L1210, mouse L1210 tumor cells; high Ki = low affinity for RFC.

Experiment [3] deals with T3, reduced-folate carrier (RFC) (Homo sapiens, UniProt P41440).
T3 construct: endogenous in cells; host or cells: W1L2
T3 sequence (P41440 1-591): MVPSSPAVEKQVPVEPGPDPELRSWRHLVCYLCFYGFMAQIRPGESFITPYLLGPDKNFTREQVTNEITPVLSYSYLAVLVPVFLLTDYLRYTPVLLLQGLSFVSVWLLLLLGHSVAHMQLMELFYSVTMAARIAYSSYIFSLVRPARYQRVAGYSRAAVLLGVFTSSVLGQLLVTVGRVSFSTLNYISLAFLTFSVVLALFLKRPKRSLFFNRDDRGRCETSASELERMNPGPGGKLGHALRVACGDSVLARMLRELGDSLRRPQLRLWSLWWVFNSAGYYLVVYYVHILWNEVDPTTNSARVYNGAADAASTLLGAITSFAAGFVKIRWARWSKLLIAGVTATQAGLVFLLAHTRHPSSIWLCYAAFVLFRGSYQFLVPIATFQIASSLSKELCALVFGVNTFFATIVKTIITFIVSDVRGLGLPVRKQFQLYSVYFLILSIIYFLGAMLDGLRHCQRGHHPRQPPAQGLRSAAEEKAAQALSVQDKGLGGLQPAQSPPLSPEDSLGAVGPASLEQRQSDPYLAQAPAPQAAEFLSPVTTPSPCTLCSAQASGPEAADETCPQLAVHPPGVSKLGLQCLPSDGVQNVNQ
As to the kind of experiment: Inhibition of 3H MTX uptake in W1L2 cells. The class given is cell-based. The settings on record: Inhibition of 3H MTX uptake Ki, W1L2, human lymphoblastoid W1L2 cells; high Ki = low affinity for RFC.

For experiment [4], the target named is T4, α-FR (Mus musculus, UniProt P35846).
T4 construct: endogenous in cells; host or cells: mouse L1210-FBP cells
T4 sequence (P35846 25-232): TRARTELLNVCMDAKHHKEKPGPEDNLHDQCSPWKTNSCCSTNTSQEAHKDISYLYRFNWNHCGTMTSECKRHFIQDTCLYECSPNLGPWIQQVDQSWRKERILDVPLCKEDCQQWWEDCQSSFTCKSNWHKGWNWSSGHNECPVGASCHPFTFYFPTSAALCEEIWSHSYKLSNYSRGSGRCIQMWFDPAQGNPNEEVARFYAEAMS
As to the kind of experiment: Binding to α-FR relative to folic acid, L1210-FBP cells. The note with it: L1210-FBP mouse tumor cells overexpressing α-FR; folic acid = 1.

The target in experiment [5] is T5, α-FR (Homo sapiens, UniProt P15328).
T5 construct: expressed in transfected cells; host or cells: A431 (human vulvar carcinoma)
T5 sequence (P15328 25-234): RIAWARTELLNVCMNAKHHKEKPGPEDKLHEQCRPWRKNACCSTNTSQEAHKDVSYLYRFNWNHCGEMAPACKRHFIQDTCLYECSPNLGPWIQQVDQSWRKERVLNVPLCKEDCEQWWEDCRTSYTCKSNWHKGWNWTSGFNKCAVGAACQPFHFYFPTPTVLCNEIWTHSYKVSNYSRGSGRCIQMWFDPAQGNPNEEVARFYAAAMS
As to the kind of experiment: Binding to α-FR relative to folic acid, A431-FBP cells. The note with it: human A431 cells transfected with α-FR; folic acid = 1.

The subject of experiment [6] is KB cells. As to the kind of experiment: Inhibition of cell growth, KB cells.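 On all read-outs here: KB nasopharyngeal carcinoma cells express the α-folate receptor, and leucovorin at 20 nM was the folate source in the growth medium.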 The note with it: for fold increased IC50 in presence of folic acid, KB: IC50 + 1 μM FA vs without FA.
Experiment [7] concerns A431 cells. Description: Inhibition of cell growth, A431 cells. The note with it: for fold increased IC50 in presence of folic acid, A431: IC50 + 1 μM FA vs without FA.
The test system of experiment [8] is A431-FBP cells. Description: Inhibition of cell growth, A431-FBP cells. The note with it: for fold increased sensitivity compared with A431, A431-FBP: A431 IC50 vs A431-FBP IC50; for fold increased IC50 in presence of folic acid, A431-FBP: IC50 + 1 μM FA vs without FA.
Where [9] appears, read: read-out: Inhibition of isolated L1210 TS, Kiapp.
[10] abbreviates: Homo sapiens, KB, read-out: Inhibition of cell growth, IC50, KB, 20 nM LV.
Setting [11] is: read-out: Inhibition of cell growth, IC50, KB + 1 μM FA, 20 nM LV, + 1 μM folic acid.
Setting [12] is: Homo sapiens, A-431, read-out: Inhibition of cell growth, IC50, A431.
The mark [13] stands for this setting: read-out: Inhibition of cell growth, IC50, A431 + 1 μM FA, 20 nM LV, + 1 μM folic acid.
The mark [14] stands for this setting: Homo sapiens, read-out: Inhibition of cell growth, IC50, A431-FBP.
The mark [15] stands for this setting: read-out: Inhibition of cell growth, IC50, A431-FBP + 1 μM FA, 20 nM LV, + 1 μM folic acid.

Several values for one entry are separate records, joined by “and”; a condition that tells them apart may be missing. Equal values may be shown once. Read-outs that look alike come from different tables or passages of the source.

In general, IC50 refers to the concentration that gives 50% inhibition.

T1 sequence (P07607 whole entry): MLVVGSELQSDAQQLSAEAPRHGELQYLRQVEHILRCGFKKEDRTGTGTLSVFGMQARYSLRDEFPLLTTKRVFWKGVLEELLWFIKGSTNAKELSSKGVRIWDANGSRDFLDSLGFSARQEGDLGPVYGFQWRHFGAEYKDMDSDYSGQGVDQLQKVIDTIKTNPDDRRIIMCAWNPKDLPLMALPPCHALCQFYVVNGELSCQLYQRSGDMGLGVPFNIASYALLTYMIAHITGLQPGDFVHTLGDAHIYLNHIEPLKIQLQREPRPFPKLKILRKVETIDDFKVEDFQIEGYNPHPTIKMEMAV

As for `C#CCN(c1ccc(C(=O)N[C@@H](CCC(=O)N[C@H](CCC(=O)O)C(=O)O)C(=O)O)c(F)c1)C1CCc2cc3nc(C)[nH]c(=O)c3cc21` (mixture of isomers) [CB300947 (R, S), N-{N-{4-[N-((6RS)-2methyl-4-oxo-3,4,7,8-tetrahydro-6H-cyclopenta[g]-quinazolin-6-yl)-N-(prop-2-ynyl)amino]-2-fluorobenzoyl}-L-γ-glutamyl}-D-glutamic acid], the Ki in experiment [1] (setting [9]) was 0.46 nM and 0.77 nM; in experiment [2] it was greater than 250000 nM; in experiment [3] it was 97000 nM and 315000 nM. For the same compound, the “Inverse relative affinity for α-FR, L1210-FBP” value in experiment [4] is given as 0.73 ± 0.01. Further, the “Inverse relative affinity for α-FR, A431-FBP” value in experiment [5] came to 0.58 ± 0.017. Further, the “fold increased IC50 in presence of folic acid, KB” value (“fold increased IC50 … KB” for short) in experiment [6] (20 nM LV) is “(73) fold”. Moreover, the IC50 turned out to be 8 ± 1 nM in experiment [6] (setting [10]); 580 ± 30 nM in experiment [6] (setting [11]); 1400 ± 260 nM in experiment [7] (setting [12]); 1200 ± 510 nM in experiment [7] (setting [13]); 9.4 ± 4 nM in experiment [8] (setting [14]); 930 ± 210 nM in experiment [8] (setting [15]). For the same compound, in experiment [7] (20 nM LV), the “fold increased IC50 in presence of folic acid, A431” value was “(1) fold”. Moreover, the “fold increased sensitivity compared with A431, A431-FBP” value (“fold increased sensitivity” for short) in experiment [8] (20 nM LV) was “(150) fold”. Moreover, in experiment [8] (20 nM LV), the “fold increased IC50 in presence of folic acid, A431-FBP” value (shortened to “fold increased IC50 … A431-FBP”) was “(100) fold”.
Take `C#CCN(c1ccc(C(=O)N[C@@H](CCC(=O)N[C@H](CCC(=O)O)c2nnn[nH]2)C(=O)O)cc1)[C@H]1CCc2cc3nc(C)[nH]c(=O)c3cc21` [CB300907 (S)]: the Ki is 0.16 nM and 0.17 nM in experiment [1] (setting [9]); 186000 ± 121000 nM in experiment [2]; 142000 ± 54000 nM in experiment [3]. For the same compound, the “Inverse relative affinity for α-FR, L1210-FBP” value in experiment [4] stood at 0.61 ± 0.07. Moreover, the “Inverse relative affinity for α-FR, A431-FBP” value in experiment [5] stood at 0.58 ± 0.032. Besides, the “fold increased IC50 … KB” value in experiment [6] (20 nM LV) is reported as “(79) fold”. In addition, the IC50 was determined as 6.2 ± 3 nM in experiment [6] (setting [10]); 490 ± 140 nM in experiment [6] (setting [11]); 1400 ± 820 nM in experiment [7] (setting [12]); 1600 ± 1100 nM in experiment [7] (setting [13]); 2.6 ± 1.8 nM in experiment [8] (setting [14]); 430 ± 180 nM in experiment [8] (setting [15]). Besides, the “fold increased IC50 in presence of folic acid, A431” value in experiment [7] (20 nM LV) is given as “(1) fold”. Further, the “fold increased sensitivity” value in experiment [8] (20 nM LV) was “(540) fold”. Moreover, the “fold increased IC50 … A431-FBP” value in experiment [8] (20 nM LV) was “(170) fold”.
Regarding `C#CCN(c1ccc(C(=O)N[C@@H](CCC(=O)N[C@H](CCC(=O)O)C(=O)O)C(=O)O)cc1)[C@H]1CCc2cc3nc(C)[nH]c(=O)c3cc21` [CB300638 (S)], the Ki in experiment [1] (setting [9]) was 0.33 ± 0.16 nM; in experiment [2] it was greater than 250000 nM; in experiment [3] it was 115000 ± 12000 nM. Also, in experiment [4], the “Inverse relative affinity for α-FR, L1210-FBP” value stood at 0.66 ± 0.08. Further, in experiment [5], the “Inverse relative affinity for α-FR, A431-FBP” value is 0.53 ± 0.07. The “fold increased IC50 … KB” value in experiment [6] (20 nM LV) is given as “(110) fold”. Besides, the IC50 in experiment [6] (setting [10]) was found to be 3.6 ± 1.5 nM; in experiment [6] (setting [11]), 390 ± 180 nM; in experiment [7] (setting [12]), 810 ± 310 nM; in experiment [7] (setting [13]) it was 970 ± 580 nM; in experiment [8] (setting [14]), 3 ± 2.1 nM; in experiment [8] (setting [15]), 490 ± 170 nM. Besides, the “fold increased IC50 in presence of folic acid, A431” value in experiment [7] (20 nM LV) is given as “(1) fold”. In experiment [8] (20 nM LV), the “fold increased sensitivity” value was “(270) fold”. Besides, the “fold increased IC50 … A431-FBP” value in experiment [8] (20 nM LV) is recorded as “(160) fold”.
For `C#CCN(c1ccc(C(=O)N[C@@H](CCC(=O)N[C@H](CCC(=O)O)C(=O)O)C(=O)O)cc1)[C@H]1CCc2cc3nc(CO)[nH]c(=O)c3cc21` [CB300945 (S)], the Ki in experiment [1] (Inhibition of isolated L1210 TS, Kiapp) came to 1.9 nM. The “Inverse relative affinity for α-FR, L1210-FBP” value in experiment [4] is on record as 0.70 ± 0.015. Besides, in experiment [5], the “Inverse relative affinity for α-FR, A431-FBP” value turned out to be 0.69 ± 0.05. The “fold increased IC50 … KB” value in experiment [6] (20 nM LV) is “(1800) fold”. For the same compound, the IC50 stood at 2.7 ± 1.5 nM in experiment [6] (setting [10]); 4800 ± 750 nM in experiment [6] (setting [11]); 7000 nM in experiment [7] (setting [12]); 6500 nM in experiment [7] (setting [13]); 1.5 nM in experiment [8] (setting [14]); 6400 nM in experiment [8] (setting [15]). Also, the “fold increased IC50 in presence of folic acid, A431” value in experiment [7] (20 nM LV) is “(1) fold”. For the same compound, the “fold increased sensitivity” value in experiment [8] (20 nM LV) is “(4700) fold”. Also, the “fold increased IC50 … A431-FBP” value in experiment [8] (20 nM LV) was “(4300) fold”.
